This assay concerns the target T1, mGlyT-1b (Mus musculus, UniProt P28571).
T1 construct: host or cells: Flp-in-CHO
T1 sequence (P28571 1-651 isoform P28571-2): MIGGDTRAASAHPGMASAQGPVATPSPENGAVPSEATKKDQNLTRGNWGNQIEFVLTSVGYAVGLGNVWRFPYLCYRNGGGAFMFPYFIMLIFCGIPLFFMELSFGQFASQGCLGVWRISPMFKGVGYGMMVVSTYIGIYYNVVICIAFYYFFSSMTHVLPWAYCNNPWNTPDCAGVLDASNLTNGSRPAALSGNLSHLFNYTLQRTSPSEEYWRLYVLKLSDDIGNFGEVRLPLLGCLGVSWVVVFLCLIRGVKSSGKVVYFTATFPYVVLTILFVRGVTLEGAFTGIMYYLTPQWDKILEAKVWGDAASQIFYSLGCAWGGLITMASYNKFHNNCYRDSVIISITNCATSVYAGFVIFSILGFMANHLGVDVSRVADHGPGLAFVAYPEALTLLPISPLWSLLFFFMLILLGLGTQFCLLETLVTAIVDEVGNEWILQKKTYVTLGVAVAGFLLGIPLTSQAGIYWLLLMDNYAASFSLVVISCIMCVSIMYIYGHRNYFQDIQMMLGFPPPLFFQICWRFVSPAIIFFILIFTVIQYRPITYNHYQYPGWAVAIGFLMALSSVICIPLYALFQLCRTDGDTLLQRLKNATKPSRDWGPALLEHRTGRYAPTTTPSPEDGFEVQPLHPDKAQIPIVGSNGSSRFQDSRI
The assay can be described thus: Glycine Uptake Inhibition Assay (mGlyT-1b). Type of assay: cell-based.

We go through nine compounds from patent US8404673B2, “Carbocyclic GlyT1 receptor antagonists” (Hoffmann-La Roche Inc., priority 2009, dated 2013).

SMILES strings stand for the structures. Read-outs that look alike come from different tables or passages of the source.

Regarding `O=C(NC1CCCC1N1CCCC1)c1c(Cl)cc(C(F)(F)F)cc1Cl` (single isomer, unassigned; (+)) [Example 128, (+)-2,6-Dichloro-N-cis-(2-pyrrolidin-1-yl-cyclopentyl)-4-trifluoromethyl-benzamide], for the setting “IC50 data”, inhibition was half-maximal at 69.1 nM (IC50). Turning to `CSc1cc(C(F)(F)F)ccc1C(=O)N[C@@H]1CCC[C@@H]1N1CCCC1` (single isomer, unassigned) [Example 85, (−)-2-Methylsulfanyl-N-(2-pyrrolidin-1-yl-cyclopentyl)-4-trifluoromethyl-benzamide], for the setting “IC50 data”, the IC50 – broadly, the concentration at which inhibition is half-maximal – was determined as 60.4 nM. Take `CCc1cc(C(F)(F)F)cc(C(F)(F)F)c1C(=O)NC1CCCC1N1CCCC1` (single isomer, unassigned) [Example 142]: the midpoint of inhibition (IC50 data), the IC50, lay at 68 nM. As for `O=C(NC1CCCC1N1CCCC1)c1ccc(C(F)(F)F)cc1C1CC1` (single isomer, unassigned) [Example 96, (+2-Cyclopropyl-N-cis-(-2-pyrrolidin-1-yl-cyclopentyl)-4-trifluoromethyl-benzamide], the IC50 (IC50 data) came to 42.8 nM. As to `COc1cc(C(F)(F)F)cc(SC)c1C(=O)N[C@@H]1CCC[C@@H]1NC1CCC1` (racemic) [Example 61, N-((1RS,2SR)-2-Cyclobutylamino-cyclopentyl)-2-methoxy-6-methylsulfanyl-4-trifluoromethyl-benzamide], the IC50 (read-out: IC50 data) was 65.9 nM.

In the case of `CCc1cccc(C)c1C(=O)N[C@H]1CCC[C@H]1N1CCCC1` (relative stereo) [Example 94, cis-2-Ethyl-6-methyl-N-(2-pyrrolidin-1-yl-cyclopentyl)-benzamide], under “IC50 data”, 98.4 nM corresponded to half-maximal inhibition (IC50). The same measure, in the same setting: with `COc1cc(C(F)(F)F)cc(SC)c1C(=O)N[C@@H]1CCC[C@@H]1N1CCCC1` (racemic) [Example 55, 2-Methoxy-6-methylsulfanyl-N-((1RS,2SR)-2-pyrrolidin-1-yl-cyclopentyl)-4-trifluoromethyl-benzamide] the figure was 84.6 nM; with `COc1cc(C(F)(F)F)cc(C2CC2)c1C(=O)N[C@H]1CCC[C@H]1N1CCCC1` (relative stereo) [Example 131, 2-Cyclopropyl-6-methoxy-N-((cis)-2-pyrrolidin-1-yl-cyclopentyl)-4 trifluoromethyl-benzamide], 19.9 nM; with `Cc1cc(C(F)(F)F)cc(C)c1C(=O)N[C@H]1CCC[C@H]1N1CCCC1` (relative stereo) [Example 132, 2,6-Dimethyl-N-((cis)-2-pyrrolidin-1-yl-cyclopentyl)-4-trifluoromethyl-benzamide], 36.5 nM.
